Data reported in patent publication US11730712B2, “Functionalized long-chain hydrocarbon mono- and di-carboxylic acids and derivatives thereof, and their use for the prevention or treatment of disease” (ESPERVITA THERAPEUTICS, INC., priority 2021, dated 2023).
Values joined by “and” are separate entries in the source; they are usually repeats but may differ in a detail not shown here. Identical values can stand only once.

How the values were obtained:
[1] = molecular target: LIMK1 (Homo sapiens, UniProt P53667); assay: Kinase assay, wild type kinases; assay type: biochemical; details: compound 10 μM, 10 μM ATP, duplicate (Data 1, Data 2), >100 activation, <100 inhibition; for remaining activity at 10 µM: read-out: % Enzyme Activity (relative to DMSO controls), LIMK1
[2] = molecular target: T1, NEK2 (Homo sapiens, UniProt P51955); assay: Kinase assay, wild type kinases; assay type: biochemical; details: compound 10 μM, 10 μM ATP, duplicate (Data 1, Data 2), >100 activation, <100 inhibition; for remaining activity at 10 µM: read-out: % Enzyme Activity (relative to DMSO controls), NEK2
T1 sequence (P51955 1-445): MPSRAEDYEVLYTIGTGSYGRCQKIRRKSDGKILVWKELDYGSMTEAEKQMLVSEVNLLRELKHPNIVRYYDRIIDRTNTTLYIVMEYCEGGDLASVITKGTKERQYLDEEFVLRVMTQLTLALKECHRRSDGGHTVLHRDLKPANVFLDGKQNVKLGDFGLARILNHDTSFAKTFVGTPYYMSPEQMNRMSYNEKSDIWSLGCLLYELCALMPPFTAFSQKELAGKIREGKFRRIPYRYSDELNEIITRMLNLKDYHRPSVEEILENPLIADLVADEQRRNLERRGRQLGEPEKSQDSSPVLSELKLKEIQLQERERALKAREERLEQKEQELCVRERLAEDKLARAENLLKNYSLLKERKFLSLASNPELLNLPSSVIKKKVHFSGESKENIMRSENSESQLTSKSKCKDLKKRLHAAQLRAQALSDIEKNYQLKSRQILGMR

[3] = molecular target: T2, RIPK4 (Homo sapiens, UniProt P57078); assay: Kinase assay, wild type kinases; assay type: biochemical; details: compound 10 μM, 10 μM ATP, duplicate (Data 1, Data 2), >100 activation, <100 inhibition; for remaining activity at 10 µM: read-out: % Enzyme Activity (relative to DMSO controls), RIPK4
T2 sequence (P57078 1-832): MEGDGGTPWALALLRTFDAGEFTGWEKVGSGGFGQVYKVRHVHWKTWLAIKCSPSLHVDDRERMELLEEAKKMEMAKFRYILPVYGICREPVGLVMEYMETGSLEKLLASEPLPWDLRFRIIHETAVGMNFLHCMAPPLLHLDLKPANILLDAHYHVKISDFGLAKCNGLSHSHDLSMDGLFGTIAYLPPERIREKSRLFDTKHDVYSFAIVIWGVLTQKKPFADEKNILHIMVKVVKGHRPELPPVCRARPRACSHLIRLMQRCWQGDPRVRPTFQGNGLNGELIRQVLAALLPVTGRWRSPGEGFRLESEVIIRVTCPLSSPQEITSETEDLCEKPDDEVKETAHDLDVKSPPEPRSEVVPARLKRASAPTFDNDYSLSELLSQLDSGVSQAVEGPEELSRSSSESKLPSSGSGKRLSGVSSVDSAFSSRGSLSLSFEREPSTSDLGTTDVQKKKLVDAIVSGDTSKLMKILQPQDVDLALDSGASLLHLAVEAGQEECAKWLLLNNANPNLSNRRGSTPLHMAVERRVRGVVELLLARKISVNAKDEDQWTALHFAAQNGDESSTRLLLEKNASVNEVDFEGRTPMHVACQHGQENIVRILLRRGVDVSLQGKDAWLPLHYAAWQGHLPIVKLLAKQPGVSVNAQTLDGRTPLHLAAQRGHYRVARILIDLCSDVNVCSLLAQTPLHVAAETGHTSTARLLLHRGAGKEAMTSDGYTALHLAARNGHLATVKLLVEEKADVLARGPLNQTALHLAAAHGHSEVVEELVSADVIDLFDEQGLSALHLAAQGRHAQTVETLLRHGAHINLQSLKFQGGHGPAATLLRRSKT

[4] = molecular target: PIM3 (Homo sapiens, UniProt Q86V86); assay: Kinase assay, wild type kinases; assay type: biochemical; details: compound 10 μM, 10 μM ATP, duplicate (Data 1, Data 2), >100 activation, <100 inhibition; for remaining activity at 10 µM: read-out: % Enzyme Activity (relative to DMSO controls), PIM3
[5] = molecular target: T3, AURORA C (Homo sapiens, UniProt Q9UQB9); assay: Kinase assay, wild type kinases; assay type: biochemical; details: compound 10 μM, 10 μM ATP, duplicate (Data 1, Data 2), >100 activation, <100 inhibition; for remaining activity at 10 µM: read-out: % Enzyme Activity (relative to DMSO controls), AURORA C
T3 sequence (Q9UQB9 1-309): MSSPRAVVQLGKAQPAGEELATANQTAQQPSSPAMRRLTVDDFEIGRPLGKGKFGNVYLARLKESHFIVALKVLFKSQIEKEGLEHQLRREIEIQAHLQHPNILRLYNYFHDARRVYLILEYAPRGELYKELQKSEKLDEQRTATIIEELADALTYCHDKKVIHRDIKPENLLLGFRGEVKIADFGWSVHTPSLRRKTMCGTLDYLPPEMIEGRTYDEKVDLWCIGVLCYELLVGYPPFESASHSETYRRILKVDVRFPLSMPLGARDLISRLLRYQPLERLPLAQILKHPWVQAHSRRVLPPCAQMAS

[6] = tested on: human hematopoietic stem and progenitor cells (CD45+CD34+); assay: Megakaryopoiesis and platelet production in cultured hematopoietic stem and progenitor cells; assay type: cell-based; details: 30 μM, added day 6
Experimental: Materials and Methods. Hematopoietic stem and progenitor cells, identified as viable CD45+CD34+ cells, were isolated from peripheral blood of healthy donors by a method known in the art (see Ivetic N. Nazi I, Karim N et al. Producing megakaryocytes from a human peripheral blood source. Transfusion 2016; 56:1066-74). These isolated cells were then analyzed for purity before being expanded for four days using a commercial supplement to increase their cell population. After expansion, the cells were analyzed for purity, washed, and stimulated with a saturating concentration of thrombopoietin (20 ng/mL) and stem cell factor (50 ng/mL) to begin megakaryopoiesis. Compound I-32 and Compound I-1 were added at this timepoint at a concentration of 30 μM. The cells were then cultured for 8 days to develop into megakaryocytes and analyzed via flow cytometry to assess their number, maturity, and platelet count as defined by CD41a, CD42b and Calcein-AM expression. In addition, Compound I-32 and Compound I-1 were added to cells during the later stages of development (day 6) to assess their impact on maturation. ABT-737 ([…]) was used as a positive control and a DMSO vehicle control (<0.15% v/v) was the negative control. […]
Statistical analysis. Statistical analyses were carried out by comparing effects on measured parameters in comparison to vehicle control. […]

Sequence of LIMK1 (P53667 whole entry, species assumed): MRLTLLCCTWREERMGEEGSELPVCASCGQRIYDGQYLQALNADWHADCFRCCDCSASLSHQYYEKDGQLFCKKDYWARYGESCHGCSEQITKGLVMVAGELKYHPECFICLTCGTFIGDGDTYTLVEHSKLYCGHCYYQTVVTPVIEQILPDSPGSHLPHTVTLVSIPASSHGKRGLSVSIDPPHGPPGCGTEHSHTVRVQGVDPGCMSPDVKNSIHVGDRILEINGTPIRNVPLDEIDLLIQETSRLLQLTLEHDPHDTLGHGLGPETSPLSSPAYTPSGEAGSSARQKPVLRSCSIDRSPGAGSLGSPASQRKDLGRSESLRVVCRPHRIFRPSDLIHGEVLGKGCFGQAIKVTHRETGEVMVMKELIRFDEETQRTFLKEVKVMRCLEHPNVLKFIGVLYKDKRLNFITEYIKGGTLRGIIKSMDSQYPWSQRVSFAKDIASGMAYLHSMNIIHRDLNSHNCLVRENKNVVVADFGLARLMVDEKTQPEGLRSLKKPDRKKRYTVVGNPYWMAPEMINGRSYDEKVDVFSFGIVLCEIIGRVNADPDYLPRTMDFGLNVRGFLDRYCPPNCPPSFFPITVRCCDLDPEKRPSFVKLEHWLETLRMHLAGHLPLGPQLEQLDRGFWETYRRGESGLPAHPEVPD

Row | Structure (SMILES) | % Enzyme Activity (relative to DMSO controls), LIMK1 [1] | % Enzyme Activity (relative to DMSO controls), NEK2 [2] | % Enzyme Activity (relative to DMSO controls), RIPK4 [3] | % Enzyme Activity (relative to DMSO controls), PIM3 [4] | % Enzyme Activity (relative to DMSO controls), AURORA C [5] | inhibition of megakaryopoiesis/platelet parameters after addition on day 6 of culture [6] | remaining activity at 10 µM [1] [%] | remaining activity at 10 µM [2] [%] | remaining activity at 10 µM [3] [%] | remaining activity at 10 µM [4] [%] | remaining activity at 10 µM [5] [%]
1 | CC(C)(CCCCc1cccc(CCCCC(C)(C)C(=O)SCCNC(=O)CCNC(=O)[C@H](O)C(C)(C)COP(=O)(O)OP(=O)(O)OC[C@H]2O[C@@H](n3cnc4c(N)ncnc43)[C@H](O)[C@@H]2OP(=O)(O)O)c1)C(=O)O [Compound I-32-CoA, 6-[3-(5-Carboxy-5-methylhexyl)-phenyl]-2,2-dimethylhexanoic acid Coenzyme A Ester] | 47.31% and 45.01% | 35.98% and 34.99% | 33.02% and 32.84% | 51.10% and 43.67% | 48.46% and 46.83% |  |  |  |  |  | 
2 | CC(C)(CCCCc1cccc(CCCCC(C)(C)C(=O)O)c1)C(=O)O [Compound I-32, 6-[3-(5-carboxy-5-methylhexyl)-phenyl]-2,2-dimethylhexanoic acid] |  |  |  |  |  | no inhibition detected | 83.8 | 87.8 | 43 | 90 | 104
3 | CC(C)(CCCCc1ccc(CCCCC(C)(C)C(=O)SCCNC(=O)CCNC(=O)[C@H](O)C(C)(C)COP(=O)(O)OP(=O)(O)OC[C@H]2O[C@@H](n3cnc4c(N)ncnc43)[C@H](O)[C@@H]2OP(=O)(O)O)cc1)C(=O)O [Compound I-1-CoA, 6-[4-(5-carboxy-5-methylhexyl)-phenyl]-2,2-dimethylhexanoic acid Coenzyme A ester] | 77.88% and 76.61% | 0.89% and 0.63% | 32.26% and 29.70% | 73.92% and 70.32% | 78.81% and 72.15% |  |  |  |  |  | 
4 | CC(C)(CCCCc1ccc(CCCCC(C)(C)C(=O)O)cc1)C(=O)O [Compound I-1, 6-[4-(5-carboxy-5-methylhexyl)-phenyl]-2,2-dimethylhexanoic acid] |  |  |  |  |  | no inhibition detected | 81 | 90.3 | 45.1 | 87.9 | 101
